# Measurements: patent US6362369B1, “Phthalic acid diamide derivatives fluorine-containing aniline compounds as starting material, agricultural and horticultural insecticides, and a method for application of the insecticides” (Nihon Nohyaku Co., Ltd., priority 1997, dated 2002)
# How the values were obtained:
# [1] = tested on: diamondback moth (Plutella xylostella); test: Insecticidal effect on diamondback moth (Test Example 1); type: in vivo; settings: for Insecticidal effect, Test Example 1 / Insecticidal effect (Test Example 1), judged from mortality: diamondback moth; for Insecticidal effect on diamondback moth (Test Example 1), judged grade: mortality judged according to the criterion shown in Test Example 1; for Insecticidal effect (Test Example 1), judged from mortality: judged by the criterion of Test Example 1
# Method in brief: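 Read-out was mortality from hatched-insect counts taken 6 days after the egg-bearing cabbage seedling was immersed, graded by set criteria. Seedlings were air-dried and kept at 25° C after treatment. Groups of 10 insects, in triplicate.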
# [2] = tested on: common cutworm (Spodoptera Litura); test: Insecticidal effect on common cutworm (Test Example 2); type: in vivo; settings: 500 ppm, 25° C.; for Insecticidal effect, Test Example 2: cabbage leaf immersed; for Insecticidal effect, Test Example 2 / Insecticidal effect on common cutworm (Test Example 2), judged grade: eight days after inoculation; for Insecticidal effect on common cutworm (Test Example 2), judged grade / Insecticidal effect (Test Example 2), judged from mortality: cabbage leaf dip; for Insecticidal effect on common cutworm (Test Example 2), judged grade: second-instar larvae; for Insecticidal effect (Test Example 2), judged from mortality: 8 days after inoculation
# Experimental: Insecticidal effect on common cutworm (Spodoptera Litura)
# After air-drying, it was placed in a plastic Petri dish with a diameter of 9 cm and inoculated with second-instar larvae of common cutworm, after which the dish was closed and then allowed to stand in a room thermostated at 25° C. Eight days after the inoculation, the dead and alive were counted. The mortality was calculated according to the following equation and the insecticidal effect was judged according to the criterion shown in Test Example 1. The test was carried out with triplicate groups of 10 insects. [formula]
# [3] = judged by the mortality criterion of Test Example 1
# [4] = second-instar larvae of common cutworm
# [5] = mortality judged by criterion of Test Example 1
# [6] = common cutworm second-instar larvae
smiles,measurement,setting,value
Cc1cc(OC(F)(F)C(F)OC(F)(F)F)ccc1NC(=O)c1c(Cl)cccc1C(=O)NC(C)C (stereo not shown) [compound 244],"Insecticidal effect, Test Example 1",[1]; [3],A (100)
same,"Insecticidal effect, Test Example 2",[2]; [4],C (89-80)
Cc1ccc(Cl)cc1NC(=O)c1ccccc1C(=O)NC(C)(C)C [compound 841],"Insecticidal effect on diamondback moth (Test Example 1), judged grade",[1],A (100)
same,"Insecticidal effect on common cutworm (Test Example 2), judged grade",[2],D (79-50)
Cc1cc(C(F)(C(F)(F)F)C(F)(F)F)ccc1NC(=O)c1cccc(OC(F)(F)F)c1C(=O)NC(C)C [compound 1236],"Insecticidal effect, Test Example 1",[1]; [5],A (100)
same,"Insecticidal effect, Test Example 2",[2]; [6],A (100)
O=C(Nc1ccc(C(F)(F)C(F)(F)F)cc1F)c1cccc(Cl)c1C(=O)NCc1ccccc1 [compound 1486],"Insecticidal effect (Test Example 1), judged from mortality",[1],A (100)
same,"Insecticidal effect (Test Example 2), judged from mortality",[2]; [4],A (100)
CC(C)NC(=O)c1c(C(=O)Nc2ccc(OC(F)F)cc2C(F)(F)F)cccc1[N+](=O)[O-] [compound 692],"Insecticidal effect on diamondback moth (Test Example 1), judged grade",[1],A (100)
same,"Insecticidal effect on common cutworm (Test Example 2), judged grade",[2],D (79-50)
CC(C)NC(=O)c1c(I)cccc1C(=O)Nc1cc2c(cc1Br)OC(F)(F)C(F)O2 (stereo not shown) [compound 1684],"Insecticidal effect (Test Example 1), judged from mortality",[1],A (100)
same,"Insecticidal effect (Test Example 2), judged from mortality",[2]; [4],A (100)
CC(C)NC(=O)c1c(C(=O)Nc2ccc(OC(F)F)c(C(F)(F)F)c2)cccc1[N+](=O)[O-] [compound 693],"Insecticidal effect on diamondback moth (Test Example 1), judged grade",[1],A (100)
same,"Insecticidal effect on common cutworm (Test Example 2), judged grade",[2],A (100)
CCN(CC)C(=O)c1c(I)cccc1C(=O)Nc1ccc(-c2ccc(C(F)(F)F)cc2)cc1C [compound 1619],"Insecticidal effect (Test Example 1), judged from mortality",[1],A (100)
same,"Insecticidal effect (Test Example 2), judged from mortality",[2]; [4],A (100)
Cc1cc(I)ccc1NC(=O)c1c(I)cccc1C(=O)NC(C)C [compound 431],"Insecticidal effect, Test Example 1",[1]; [3],A (100)
same,"Insecticidal effect, Test Example 2",[2]; [4],A (100)
CC(C)(C)NC(=O)c1c(I)cccc1C(=O)Nc1ccc(C(F)(C(F)(F)F)C(F)(F)F)c(F)c1 [compound 1696],"Insecticidal effect (Test Example 1), judged from mortality",[1],A (100)
same,"Insecticidal effect (Test Example 2), judged from mortality",[2]; [4],A (100)
CC(C)(C)NC(=O)c1c(I)cccc1C(=O)Nc1ccc(C(F)(C(F)(F)F)C(F)(F)F)cc1F [compound 1670],"Insecticidal effect (Test Example 1), judged from mortality",[1],A (100)
same,"Insecticidal effect (Test Example 2), judged from mortality",[2]; [4],A (100)
Cc1c(NC(=O)c2cccc(I)c2C(=O)NC(C)C)ccc(C(F)(F)C(F)(F)F)c1C [compound 1612],"Insecticidal effect (Test Example 1), judged from mortality",[1],A (100)
same,"Insecticidal effect (Test Example 2), judged from mortality",[2]; [4],A (100)
Cc1cc2c(cc1NC(=O)c1cccc(I)c1C(=O)NC(C)C)OC(F)(F)C2(F)F [compound 1666],"Insecticidal effect (Test Example 1), judged from mortality",[1],A (100)
same,"Insecticidal effect (Test Example 2), judged from mortality",[2]; [4],A (100)
Cc1ccc(Cl)cc1NC(=O)c1cccc([N+](=O)[O-])c1C(=O)NC1CCCC1 [compound 858],"Insecticidal effect on diamondback moth (Test Example 1), judged grade",[1],C (89-80)
same,"Insecticidal effect on common cutworm (Test Example 2), judged grade",[2],A (100)
Cc1ccc(Cl)cc1NC(=O)c1c(Cl)cccc1C(=O)NC(C)C [compound 215],"Insecticidal effect, Test Example 1",[1]; [3],A (100)
same,"Insecticidal effect, Test Example 2",[2]; [4],D (79-50)
Cc1cc(Oc2ccc(C(F)(F)F)cn2)ccc1NC(=O)c1c(I)cccc1C(=O)NC(C)C [compound 460],"Insecticidal effect on diamondback moth (Test Example 1), judged grade",[1],A (100)
same,"Insecticidal effect on common cutworm (Test Example 2), judged grade",[2],B (99-90)
CCN(CC)C(=O)c1c(OC(F)(F)F)cccc1C(=O)Nc1ccc(OC(F)(F)F)cc1C [compound 1235],"Insecticidal effect, Test Example 1",[1]; [5],A (100)
same,"Insecticidal effect, Test Example 2",[2]; [6],D (79-50)
CC(C)NC(=O)c1c(C(=O)Nc2ccc(Cl)cc2Cl)cccc1[N+](=O)[O-] [compound 633],"Insecticidal effect on diamondback moth (Test Example 1), judged grade",[1],A (100)
same,"Insecticidal effect on common cutworm (Test Example 2), judged grade",[2],D (79-50)
CSc1cc(C(F)(F)C(F)(F)F)ccc1NC(=O)c1cccc(I)c1C(=O)NC(C)C [compound 1700],"Insecticidal effect (Test Example 1), judged from mortality",[1],A (100)
same,"Insecticidal effect (Test Example 2), judged from mortality",[2]; [4],D (79-50)
CC(C)NC(=O)c1c(C(=O)Nc2c(Cl)cccc2Cl)cccc1[N+](=O)[O-] [compound 635],"Insecticidal effect on diamondback moth (Test Example 1), judged grade",[1],A (100)
same,"Insecticidal effect on common cutworm (Test Example 2), judged grade",[2],D (79-50)
CCN(CC)C(=O)c1c(C(=O)Nc2ccc(C(F)(F)C(F)(F)F)cc2C)ccc(F)c1Cl [compound 1258],"Insecticidal effect, Test Example 1",[1]; [5],A (100)
same,"Insecticidal effect, Test Example 2",[2]; [6],A (100)
Cc1cc(Oc2c(F)c(F)c(F)c(F)c2F)ccc1NC(=O)c1cccc([N+](=O)[O-])c1C(=O)NC(C)C [compound 725],"Insecticidal effect on diamondback moth (Test Example 1), judged grade",[1],A (100)
same,"Insecticidal effect on common cutworm (Test Example 2), judged grade",[2],A (100)
Cc1cc(OC(F)F)c(Cl)cc1NC(=O)c1c(F)cccc1C(=O)NC(C)C [compound 571],"Insecticidal effect on diamondback moth (Test Example 1), judged grade",[1],A (100)
same,"Insecticidal effect on common cutworm (Test Example 2), judged grade",[2],C (89-80)
CC(C)NC(=O)c1c(I)cccc1C(=O)Nc1ccc(C(F)(C(F)(F)F)C(F)(F)F)cc1Br [compound 1699],"Insecticidal effect (Test Example 1), judged from mortality",[1],A (100)
same,"Insecticidal effect (Test Example 2), judged from mortality",[2]; [4],A (100)
CC(C)NC(=O)c1ccccc1C(=O)Nc1ccc(SC(F)(F)C(F)F)cc1 [compound 34],"Insecticidal effect, Test Example 1",[1]; [3],A (100)
same,"Insecticidal effect, Test Example 2",[2]; [4],C (89-80)
CC(C)NC(=O)c1cccc(F)c1C(=O)Nc1ccc(C(F)(F)C(F)(F)C(F)(F)F)cc1 [compound 535],"Insecticidal effect on diamondback moth (Test Example 1), judged grade",[1],A (100)
same,"Insecticidal effect on common cutworm (Test Example 2), judged grade",[2],A (100)
CC(C)NC(=O)c1c(I)cccc1C(=O)Nc1ccc(C(F)(C(F)(F)F)C(F)(F)F)c(F)c1 [compound 1695],"Insecticidal effect (Test Example 1), judged from mortality",[1],A (100)
same,"Insecticidal effect (Test Example 2), judged from mortality",[2]; [4],A (100)
CNC(=O)c1ccccc1C(=O)Nc1ccc(C(F)(F)F)cc1 [compound 2],"Insecticidal effect, Test Example 1",[1]; [3],A (100)
same,"Insecticidal effect, Test Example 2",[2]; [4],C (89-80)
CC(C)NC(=O)c1c(C(=O)Nc2c(F)cccc2F)cccc1[N+](=O)[O-] [compound 641],"Insecticidal effect on diamondback moth (Test Example 1), judged grade",[1],D (79-50)
same,"Insecticidal effect on common cutworm (Test Example 2), judged grade",[2],D (79-50)
Cc1ccc(NC(=O)c2c(I)cccc2C(=O)NC(C)C)c(C)c1Cl [compound 429],"Insecticidal effect, Test Example 1",[1]; [3],A (100)
same,"Insecticidal effect, Test Example 2",[2]; [4],D (79-50)
CSc1cc(C(F)(C(F)(F)F)C(F)(F)F)ccc1NC(=O)c1cccc(I)c1C(=O)NC(C)C [compound 1671],"Insecticidal effect (Test Example 1), judged from mortality",[1],A (100)
same,"Insecticidal effect (Test Example 2), judged from mortality",[2]; [4],A (100)
Cc1cc(C(F)(C(F)(F)F)C(F)(F)F)ccc1NC(=O)c1cccc(I)c1C(=O)NC(C)(C)C [compound 1668],"Insecticidal effect (Test Example 1), judged from mortality",[1],A (100)
same,"Insecticidal effect (Test Example 2), judged from mortality",[2]; [4],A (100)
CCN(CC)C(=O)c1ccccc1C(=O)Nc1ccc(C(F)(F)F)cc1 [compound 12],"Insecticidal effect, Test Example 1",[1]; [3],A (100)
same,"Insecticidal effect, Test Example 2",[2]; [4],D (79-50)
CC(C)NC(=O)c1c(I)cccc1C(=O)Nc1ccc2oc(C(F)(F)F)nc2c1Cl [compound 1682],"Insecticidal effect (Test Example 1), judged from mortality",[1],A (100)
same,"Insecticidal effect (Test Example 2), judged from mortality",[2]; [4],A (100)
Cc1cc(OC(F)(F)F)ccc1NC(=O)c1cccc(C(F)(F)F)c1C(=O)NC(C)C [compound 1183],"Insecticidal effect, Test Example 1",[1]; [5],A (100)
same,"Insecticidal effect, Test Example 2",[2]; [6],A (100)
CC(C)NC(=O)c1c(I)cccc1C(=O)Nc1cc2c(cc1I)OC(F)(F)O2 [compound 1660],"Insecticidal effect (Test Example 1), judged from mortality",[1],A (100)
same,"Insecticidal effect (Test Example 2), judged from mortality",[2]; [4],A (100)
CC(C)NC(=O)c1c(I)cccc1C(=O)Nc1ccc(C(F)(C(F)(F)F)C(F)(F)F)c(Cl)c1 [compound 1697],"Insecticidal effect (Test Example 1), judged from mortality",[1],A (100)
same,"Insecticidal effect (Test Example 2), judged from mortality",[2]; [4],A (100)
Cc1cc(C(F)(C(F)(F)F)C(F)(F)F)ccc1NC(=O)c1cccc(I)c1C(=O)NC(C)C [compound 1667],"Insecticidal effect (Test Example 1), judged from mortality",[1],A (100)
same,"Insecticidal effect (Test Example 2), judged from mortality",[2]; [4],A (100)
CC(C)(C)NC(=O)c1c(I)cccc1C(=O)Nc1ccc(C(F)(F)C(F)(F)F)c(Cl)c1 [compound 1609],"Insecticidal effect (Test Example 1), judged from mortality",[1],A (100)
same,"Insecticidal effect (Test Example 2), judged from mortality",[2]; [4],A (100)
CC(C)(C)NC(=O)c1ccccc1C(=O)Nc1ccc(C(O)(C(F)(F)F)C(F)(F)F)cc1 [compound 1052],"Insecticidal effect, Test Example 1",[1]; [5],A (100)
same,"Insecticidal effect, Test Example 2",[2]; [6],A (100)
CC(C)NC(=O)c1c(I)cccc1C(=O)Nc1cc2c(cc1Cl)OC(F)(F)C(F)O2 (racemic) [compound 1601],"Insecticidal effect (Test Example 1), judged from mortality",[1],A (100)
same,"Insecticidal effect (Test Example 2), judged from mortality",[2]; [4],A (100)
CSc1ccc(NC(=O)c2cccc([N+](=O)[O-])c2C(=O)NC(C)C)c(C)c1 [compound 719],"Insecticidal effect on diamondback moth (Test Example 1), judged grade",[1],A (100)
same,"Insecticidal effect on common cutworm (Test Example 2), judged grade",[2],D (79-50)
CC(C)NC(=O)c1ccccc1C(=O)Nc1ccc(F)c(F)c1 [compound 43],"Insecticidal effect, Test Example 1",[1]; [3],B (99-90)
same,"Insecticidal effect, Test Example 2",[2]; [4],D (79-50)
CC(C)NC(=O)c1c(C(=O)Nc2ccc(Cl)c(Cl)c2Cl)cccc1[N+](=O)[O-] [compound 644],"Insecticidal effect on diamondback moth (Test Example 1), judged grade",[1],A (100)
same,"Insecticidal effect on common cutworm (Test Example 2), judged grade",[2],A (100)
